Drawing on patent US20060046966A1, “Antipicornaviral compounds and compositions, their pharmaceutical uses, and materials for their synthesis” (Agouron Pharmaceuticals, Inc., priority 1998, published 2006), this text covers kinact/KI and EC50 for 11 compounds.

Like-named read-outs stand apart in the source and are kept apart here.

For experiment [1], the target named is T1, rhinovirus 3C protease from HRV serotype-14 (Human rhinovirus 14, UniProt P03303).
T1 construct: Recombinant rhinovirus 3C proteases; made in house
T1 sequence (P03303 1538-1719): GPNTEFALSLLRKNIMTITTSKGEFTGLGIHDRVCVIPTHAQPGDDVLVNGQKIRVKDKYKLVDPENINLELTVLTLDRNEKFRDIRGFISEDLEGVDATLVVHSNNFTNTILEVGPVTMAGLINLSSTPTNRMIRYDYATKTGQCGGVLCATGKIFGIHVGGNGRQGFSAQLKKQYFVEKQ
The experiment is described as follows: Inhibition of rhinovirus 3C protease (FRET assay), serotype 14. It is filed as biochemical. To be noted: HRV serotype-14 3C protease; progress curves in enzyme start experiments; read-out: Protease Inhibition kobs/[I]. Here is the method: Stock solutions (50 mM, in DMSO) of various compounds were prepared; dilutions were in the same solvent. Recombinant rhinovirus 3C proteases (see Birch et al., “Purification of recombinant human rhinovirus 14 3C protease expressed in Escherichia coli,” Protein Expr. Pur. 1995, 6(5), 609-618) from serotypes 14, 16, and 2 were prepared by the following standard chromatographic procedures: (1) ion exchange using Q Sepharose Fast Flow from Pharmacia; (2) affinity chromatography using Affi-Gel Blue from Biorad; and (3) sizing using Sephadex G-100 from Pharmacia. Each assay sample contained 2% DMSO, 50 mM tris pH 7.6, 1 mM EDTA, a test compound at the indicated concentration, approximately 1 μM substrate, and 50-100 nM protease. The kobs/I values were obtained from reactions initiated by addition of enzyme rather than substrate. RVP activity was measured in the fluorescence resonance energy transfer assay. The substrate was (N-terminal) DABCYL-(Gly-Arg-Ala-Val-Phe-Gln-Gly-Pro-Val-Gly)-EDANS. In the uncleaved peptide, the EDANS fluorescence was quenched by the proximal DABCYL moiety. When the peptide was cleaved, the quenching was relieved, and activity was measured as an increase in fluorescence signal. In Table 1, all data are for rhinovirus 3C protease from HRV serotype-14 (produced from the infectious cDNA clone constructed by Dr. Robert Rueckert, Institute for Molecular Virology, University of Wisconsin, Madison, Wis.). […] The data in the column designated kobs/[I] were measured from progress curves in enzyme start experiments.

Experiment [2] relates to HRV-14. Kind of experiment: Antirhinoviral H1-HeLa cell culture assay, HRV-14. It counts as cell-based, human rhinovirus. To be noted: Rhinovirus B, HRV14, H1-HeLa, HRV serotype-14, H1-HeLa cells. As for the experimental part: In this cell protection assay, the ability of compounds to protect cells against HRV infection was measured by the XTT dye reduction method, which is described in Weislow et al., J. Natl. Cancer Inst. 1989, vol. 81, 577-586.
H1-HeLa cells were infected with HRV-14 at a multiplicity of infection (m.o.i.) of 0.13 (virus particles/cell) or mock-infected with medium only. Infected or mock-infected cells were resuspended at 8×10^5 cells per mL, and incubated with appropriate concentrations of the compounds to be tested. Two days later, XTT/PMS was added to test plates and the amount of formazan produced was quantified spectrophotometrically at 450/650 nm. The EC50 value was calculated as the concentration of compound that increased the percentage of formazan production in compound-treated, virus-infected cells to 50% of that produced by compound-free, mock-infected cells. The 50% cytotoxic dose (CC50) was calculated as the concentration of compound that decreased the percentage of formazan produced in compound-treated, mock-infected cells to 50% of that produced by compound-free, mock-infected cells. The therapeutic index (TI) was calculated by dividing the CC50 value by the EC50 value.
All strains of human rhinovirus (HRV) for use in this assay were purchased from American Type Culture Collection (ATCC), except for HRV serotype-14 (produced from the infectious cDNA clone constructed by Dr. Robert Rueckert, Institute for Molecular Virology, University of Wisconsin, Madison, Wis.). HRV stocks were propagated and viral assays were performed in H1-HeLa cells (ATCC). Cells were grown in minimal essential medium with 10% fetal bovine serum, available from Life Technologies (Gaithersburg, Md.).
The compounds were tested against control compounds WIN 51711, WIN 52084, and WIN 54954 (obtained from Sterling-Winthrop Pharmaceuticals), Pirodavir (obtained from Janssen Pharmaceuticals), and Pleconaril (prepared according to the method described in Diana et al., J. Med. Chem 1995, vol. 38, 1355). Antiviral data obtained for the test compounds are shown in Tables 1 and 3, where all data are for HRV serotype-14 unless otherwise noted in parentheses.

[3] abbreviates: Table 1, XTT dye reduction, read-out: Cell Protection EC50.

Take `CCOC(=O)/C=C/[C@H](CCC(N)=O)NC(=O)[C@H](Cc1ccccc1)NC(=O)[C@H](CC(C)C)NC(=O)c1cc(C)[nH]n1` [Compound A-22]: in experiment [1], the kinact/KI was 2400 M⁻¹ s⁻¹.
Turning to `CCOC(=O)/C=C/[C@H](C[C@@H]1CCCNC1=O)NC(=O)[C@@H](CC(=O)[C@@H](NC(=O)c1cc(C)on1)C(C)C)Cc1ccc(F)cc1` [Compound B-4, Ethyl-3-[(5′-Methylisoxazole-3′-carbonyl)-L-ValΨ(COCH2)-L-(4-F-Phe)-L-((S)-Piper-Ala)}-E-Propenoate], the EC50 (as a rule, the concentration at which the effect is half-maximal) in experiment [2] (setting [3]) was < 30 nM; in experiment [2] (Table 3, XTT, read-out: EC50) it was < 30 nM. Further, the kinact/KI in experiment [1] was found to be 500000 M⁻¹ s⁻¹.
As for `CCOC(=O)/C=C/[C@H](CCC(N)=O)NC(=O)[C@H](Cc1ccc(F)cc1)N(C)C(=O)[C@H](Cc1c[nH]cn1)NC(=O)c1cc(C)on1` [Compound A-9, Ethyl-3-{(5′-Methylisoxazole-3′-carbonyl)-L-His-NCH3-L-(4-F-Phe)-L-Gln}-E-Propenoate], the 50% effective concentration (EC50) in experiment [2] (setting [3]) turned out to be 1800 nM; in experiment [2] (Table 3, XTT, read-out: EC50) it was 1800 nM. Besides, in experiment [1], the kinact/KI stood at 66000 M⁻¹ s⁻¹.
Regarding `CCOC(=O)/C=C/[C@H](CCC(N)=O)NC(=O)[C@H](Cc1ccc(C)cc1)NC(=O)[C@@H](NC(=O)c1cc(C)on1)C(C)(C)C` [Compound A-3, Ethyl-3-((5′-Methylisoxazole-3′-carbonyl)-L-α-(t-Butyl-Gly)-L-(4-Me-Phe)-L-Gln)-E-Propenoate], the EC50 in experiment [2] (setting [3]) came out at 50 nM; in experiment [2] (Table 3, XTT, read-out: EC50), 50 nM. Also, the kinact/KI in experiment [1] was 310000 M⁻¹ s⁻¹.
As to `CCOC(=O)/C=C/[C@H](CCC(N)=O)NC(=O)[C@H](Cc1ccc(F)cc1)NC(=O)[C@@H](NC(=O)c1cc(C)on1)C(C)(C)C` [Compound A-4, Ethyl-3-((5′-Methylisoxazole-3′-carbonyl)-L-α-(t-Butyl-Gly)-L-(4-F-Phe)-L-Gln)-E-Provenoate], the EC50 in experiment [2] (setting [3]) turned out to be 100 nM; in experiment [2] (Table 3, XTT, read-out: EC50), 100 nM. The kinact/KI in experiment [1] amounted to 270000 M⁻¹ s⁻¹.
For `CCOC(=O)/C=C/[C@H](C[C@@H]1CCCNC1=O)NC(=O)[C@H](Cc1ccccc1)NC(=O)[C@H](CC(C)C)NC(=O)OCc1ccccc1` [Compound A-26, Ethyl-3-{Cbz-L-Leu-L-Phe-L-((S)-Piper-Ala)}-E-Provenoate], the EC50 in experiment [2] (setting [3]) came out at 30 nM; in experiment [2] (Table 3, XTT, read-out: EC50), 30 nM. Besides, the kinact/KI in experiment [1] turned out to be 239000 M⁻¹ s⁻¹.
For `CCOC(=O)/C=C/[C@H](C[C@@H]1CCNC1=O)NC(=O)[C@H](Cc1ccccc1)NC(=O)[C@@H](NC(=O)OCc1ccccc1)C(C)C` [Compound A-25, Ethyl-3-{Cbz-L-Val-L-Phe-L-((S)-Pyrrol-Ala)}-E-Propenoate], the EC50 stood at 30 nM in experiment [2] (setting [3]) and 30 nM in experiment [2] (Table 3, XTT, read-out: EC50). For the same compound, the kinact/KI in experiment [1] was found to be 500000 M⁻¹ s⁻¹.
`CCOC(=O)/C=C/[C@H](CCC(N)=O)NC(=O)[C@H](Cc1ccc(F)cc1)N(C)C(=O)[C@H](Cc1ccc2ccccc2c1)NC(=O)c1cc(C)on1` [Compound A-11, Ethyl-3-{(5′-Methylisoxazole-3′-carbonyl)-L-(2-Naphth)-NCH3-L-(4-F-Phe)-L-Gln}-E-Propenoate]: the EC50 in experiment [2] (setting [3]) stood at 30 nM; in experiment [2] (Table 3, XTT, read-out: EC50), 30 nM. The kinact/KI in experiment [1] came out at 108000 M⁻¹ s⁻¹.
Regarding `CCOC(=O)/C=C/[C@H](CCC(N)=O)NC(=O)[C@H](Cc1ccc(F)cc1)N(C)C(=O)[C@H](Cc1cccc2ccccc12)NC(=O)c1cc(C)on1` [Compound A-13, Ethyl-3-{(5′-Methylisoxazole-3′-carbonyl)-L-(1-Naphth)-NCH3-L-(4-F-Phe)-L-Gln}-E-Propenoate], the EC50 is 200 nM in experiment [2] (setting [3]) and 200 nM in experiment [2] (Table 3, XTT, read-out: EC50). Further, the kinact/KI in experiment [1] amounted to 95800 M⁻¹ s⁻¹.
For the compound `CCOC(=O)/C=C/[C@H](CCC(N)=O)NC(=O)[C@H](Cc1ccccc1)NC(=O)[C@H](CC(C)C)NC(=O)c1cc(C)cs1` [Compound A-23], in experiment [1], the kinact/KI came out at 26000 M⁻¹ s⁻¹.
On the same count and under the same terms, then `CCOC(=O)/C=C/[C@H](C[C@@H]1CCCNC1=O)NC(=O)[C@H](Cc1ccc(F)cc1)NC(=O)[C@@H](NC(=O)c1cc(C)on1)C(C)C` [Compound A-8, Ethyl-3-[(5′-Methylisoxazole-3′-carbonyl)-L-Val-L-(4-F-Phe)-L-((S)-Piper-Ala)}-E-Propenoate], with 900000 M⁻¹ s⁻¹.
